Experimental findings from publication PMC8148468, “Shikimic acid protects skin cells from UV-induced senescence through activation of the NAD+-dependent deacetylase SIRT1” (Aging (Albany NY), 2021) are described below.

The subject of data set [1] is γH2AX. Put plainly: γH2AX immunofluorescence assay. The format is cell-based, human. To be noted: UVB irradiation, SA 10, 25, 50 mM. The protocol: Figure 4 (A) SRB and Trypan blue cell viability assays performed in cells treated with or without Shikimic acid (5, 10, 25 and 50 mM) for 24h. (B) Apoptosis detection using the Annexin V-FITC/PI double staining followed by flow cytometry in non-irradiated and non-treated cells, irradiated and non-treated cells and irradiated cells treated with Shikimic acid (10, 25 and 50 mM). (C) Representation and statistical analysis of the percentage of apoptotic cells in each of the conditions analyzed. (D) Cell cycle analysis using PI staining followed by flow cytometry. (E) Relative p16^INK4a mRNA levels monitored by qPCR in the indicated conditions. Student T-test, *p<0.05. (F) Immunofluorescence of γH2AX in non-irradiated and non-treated cells, irradiated and non-treated cells and irradiated cells treated with Shikimic acid (10, 25 and 50 mM). […]
The staining and detection of γH2AX foci by immunofluorescence was performed as previously described. Slides were analyzed by confocal microscopy using a Confocal Leica SP5 microscope (Leica Microsystems) with a 63x objective.

The test system of data set [2] is IL-6. Put plainly: IL-6 mRNA levels (qPCR). The class given is cell-based, human. To be noted: UVB-irradiated HDF, SA 10, 25, 50 mM -/+ EX-527 1 μM. The protocol:
Figure 3 (A) Schematic representation of the protocol for senescence induction using UVB irradiation and study of EX527 involvement in the effect of Shikimic acid. Cells were treated with or without shikimic acid -/+ EX-527 from day 1 until day 7 after seeding, irradiated with UVB on days 2 and 5 and harvested for analysis on day 7. (B) Phase-contrast (left column) and bright field (right column) microscope images of β-Gal staining showing non-irradiated cells non-treated and treated with shikimic acid (10, 25 and 50 mM), UVB-irradiated cells non-treated and treated with shikimic acid (10, 25 and 50 mM), shikimic acid (10, 25 and 50 mM) + EX-527 1 μM and EX-527 1 μM. […] SIRT1 activity was then evaluated by analyzing acetylation of H3K9, H4K16 and p53K382 by Western blot. […]
RNA was extracted from cell pellets using the Total RNA Purification Kit (Norgen, Canada), according to the manufacturer’s protocol. Extracted RNA was quantified using a NanoDrop® ND-1000 UV-Vis Spectrophotometer (Thermo Fisher Scientific, USA) and 300 ng of RNA were retrotranscribed to cDNA using the PrimeScriptTM RT reagent kit (Takara Bio Inc., Japan). cDNA was diluted 1/10 in ultrapure water and qPCR mix was prepared by adding cDNA (12 ng), SYBR green supermix (Bio Rad, USA), forward and reverse primers (0.2μM). […] The results were analyzed with Bio-Rad CFX Manager software. […]

Data set [3] has as its system primary human dermal fibroblasts (HDFs). To be noted: female, human.
The test system of data set [4] is H3K9ac (the target of SIRT1, SIRT2 and SIRT6). In words: Sirtuin activity assay in HDF: H3K9ac levels (Western blot). The class given is cell-based, human. Particulars: UV conditions, -/+25mM SA -/+1μM EX-527. Background: In western blotting, separated proteins are transferred to a membrane and probed.

Consider `O=C(O)C1=C[C@@H](O)[C@@H](O)[C@H](O)C1` [Shikimic acid], for which the “accumulation of DNA damage (γH2AX)” value in data set [1] is recorded as “did not alter the accumulation of DNA damage”. Besides, the “IL-6 mRNA levels” value in data set [2] is “induced a reduction in the levels of expression of the inflammatory cytokine IL-6”. In data set [3], the “LD50” value was 58.44 mM and the “Max. non-cyt. doses” value was determined as 25 mM. Moreover, the “H3K9ac/H3 levels under UV-induced senescence” value in data set [4] is “induced increased deacetylation of H3K9ac and H4K16ac”.
